Experimental data as given in patent publication US9974778B2, “Substituted pyridinones as MGAT2 inhibitors” (BRISTOL-MYERS SQUIBB COMPANY, priority 2014, dated 2018).

target: T1, Human MGAT-2 (Homo sapiens, UniProt Q3SYC2); assay: MGAT LCMS Assay; type: biochemical; conditions: human MGAT2 membranes expressed in Sf9 cells; 100 μM 2-oleoylglycerol, 15 μM oleoyl-coenzyme A; read-out: h-MGAT LCMS IC50
T1 construct: made in house; host or cells: Sf9 cells (membrane preparation)
Method in brief: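 Robotic enzyme reaction shaken 10 min, quenched with ice-cold methanol containing 1 μg/mL 1,2-distearoyl-rac-glycerol internal standard. Diolein product measured by LC/MS (C8 column, 65° C, APCI(+) triple quad). IC50 derived from diolein/internal standard peak area ratio.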

T1 sequence (Q3SYC2 whole entry): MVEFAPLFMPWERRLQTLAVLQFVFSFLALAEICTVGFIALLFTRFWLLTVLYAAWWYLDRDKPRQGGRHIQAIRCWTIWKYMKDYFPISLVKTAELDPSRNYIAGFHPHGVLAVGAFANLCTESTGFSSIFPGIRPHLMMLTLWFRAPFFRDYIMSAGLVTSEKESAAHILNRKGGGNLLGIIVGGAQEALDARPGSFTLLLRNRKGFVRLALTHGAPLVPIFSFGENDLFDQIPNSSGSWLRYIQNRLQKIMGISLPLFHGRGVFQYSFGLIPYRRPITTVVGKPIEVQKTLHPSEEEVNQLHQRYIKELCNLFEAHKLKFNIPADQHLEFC

| Compound | IC50 |
| --- | --- |
| CN(C)c1ncc(-c2cc(C3CCCCC3)[nH]c(=O)c2C(=O)Nc2ccc(OC(F)(F)F)cc2)s1 [Example 82, 6-Cyclohexyl-4-(2-(dimethylamino)thiazol-5-yl)-2-oxo-N-(4-(trifluoromethoxy)phenyl)-1,2-dihydropyridinc-3-carboxamide] | 1 nM |
| CCCCCc1ccc(-c2cc(-c3ccc(C)cc3)c(NC(=O)c3ccccc3)c(=O)[nH]2)cc1 [Example 14, N-(2-Oxo-6-(4-pentylphenyl)-4-(p-tolyl)-1,2-dihydropyridin-3-yl)benzamide] | 100 nM |
| Cc1ccc(-c2c(Br)c(-c3ccc(OCCCC(F)(F)F)cc3)[nH]c(=O)c2-c2nnn[nH]2)cc1 [Example 6, 5-Bromo-3-(1H-tetrazol-5-yl)-4-(p-tolyl)-6-(4-(4,4,4-trifluorobutoxy)phenyl)pyridin-2(1H)-one] | 79 nM |
| Cc1ccc(-c2cc(-c3ccc(OCCCC(F)(F)F)cc3C(F)(F)F)[nH]c(=O)c2C(=O)Nc2ccc(OC(F)(F)F)cc2)cc1 [Example 111, 2-Oxo-4-(p-tolyl)-6-(4-(4,4,4-trifluorobutoxy)-2-(trifluoromethyl)phenyl)-N-(4-(trifluorormethoxy)phenyl)-1,2-dihydropyridine-3-carboxamide] | 2 nM |
| O=C(NS(=O)(=O)C1CC1)c1c(-c2ccc(CC3CC3)cc2)cc(-c2ccc(OCCCCCC(F)(F)F)cc2)[nH]c1=O [Example 63, 4-(4-(Cyclopropylmethyl)phenyl)-N-(cyclopropylsulfonyl)-2-oxo-6-(4-((6,6,6-trifluorohexyl)oxy)phenyl)-1,2-dihydropyridine-3-carboxamide] | 17 nM |
| Cc1ccc(-c2cc(-c3ccc(OCCCCCC(F)(F)F)cc3)[nH]c(=O)c2C(=O)NS(=O)(=O)N(C)C)cc1 [Example 56, N-(N,N-Dimethylsulfamoyl)-2-oxo-4-(p-tolyl)-6-(4-((6,6,6-trifluorohexyl)oxy)phenyl)-1,2-dihydropyridine-3-carboxamide] | 29 nM |
| O=C(Nc1ccc(OC(F)(F)F)cc1)c1c(-c2cnn(C3CC3)c2)cc(C2CCCCC2)[nH]c1=O [Example 94] | 355 nM |
| CCCCCc1ccc(-c2cc(-c3ccc(CC)o3)c(C(=O)Nc3ccc(OCC)cc3)c(=O)[nH]2)cc1 [Example 42, N-(4-Ethoxyphenyl)-4-(5-ethylfuran-2-yl)-2-oxo-6-(4-pentylphenyl)-1,2-dihydropyridine-3-carboxamide] | 395 nM |
| O=c1[nH]c(-c2ccc(OCCCC(F)(F)F)cc2)cc(-c2ccn(C3CC3)n2)c1-c1nn[nH]n1 [Example 76, 4-(1-Cyclopropyl-1H-pyrazol-3-yl)-3-(2H-tetrazol-5-yl)-6-(4-(4,4,4-trifluorobutoxy)phenyl)pyridin-2(1H)-one] | 87 nM |
| COc1ccc(NC(=O)c2c(-c3ccc(C)cc3)cc(-c3nc(-c4ccccc4)oc3C)[nH]c2=O)cc1 [Example 4, N-(4-Methoxyphenyl)-6-(5-methyl-2-phenyloxazol-4-yl)-2-oxo-4-(p-tolyl)-1,2-dihydropyridine-3-carboxamide] | 5 nM |
| O=C(Nc1ccc(OC(F)(F)F)cc1)c1c(-c2cnn(C3CC3)c2)cc(-c2ccc(OCCCC(F)(F)F)cc2)[nH]c1=O [Example 95, 4-(1-Cyclopropyl-1H-pyrazol-4-yl)-2-oxo-6-(4-(4,4,4-trifluorobutoxy)phenyl)-N-(4-(trifluoromethoxy)phenyl)-1,2-dihydropyridine-3-carboxamide] | 17 nM |
| CCC/C=C/c1ccc(-c2cc(-c3ccc(N(C)C)cc3)c(-c3nn[nH]n3)c(=O)[nH]2)cc1 [Example 80, (E)-4-(4-(Dimethylamino)phenyl)-6-(4-(pent-1-en-1-yl)phenyl)-3-(2H-tetrazol-5-yl)pyridin-2(1H)-one] | 168 nM |
| Cc1ccc(-c2cc(-c3ccc(OCCCCCC(F)(F)F)c(C)c3)[nH]c(=O)c2-c2nnn[nH]2)cc1 [Example 70, 6-(3-Methyl-4-((6,6,6-trifluorohexyl)oxy)phenyl)-3-(1H-tetrazol-5-yl)-4-(p-tolyl)pyridin-2(1H)-one] | 97 nM |
| Cc1ccc(-c2cc(-c3ccc(OCCCCCC(F)(F)F)cc3Cl)[nH]c(=O)c2C(=O)Nc2ccc(OC(F)(F)F)cc2)cc1 [Example 131, 6-(2-Chloro-4-((6,6,6-trifluorohexyl)oxy)phenyl)-2-oxo-4-(p-tolyl)-Ar-(4-(trifluoromethoxy)phenyl)-1,2-dihydropyridine-3-carboxamide] | 7 nM |
| O=c1[nH]c(-c2ccc(OCCCCC(F)(F)F)cc2)cc(-c2ccc(C3CC3)s2)c1-c1nnn[nH]1 [Example 46] | 27 nM |
| CCc1ccc(-c2cc(-c3ccc(CCC4CC4)cc3)[nH]c(=O)c2-c2nn[nH]n2)s1 [Example 145, 6-(4-(2-Cyclopropylethyl)phenyl)-4-(5-ethylthiophen-2-yl)-3-(2H-tetrazol-5-yl)pyridin-2(1H)-one] | 10 nM |

| Compound | IC50 |
| --- | --- |
| O=c1[nH]c(-c2ccc(OCCCC(F)(F)F)cc2F)cc(-c2ccc(OC(F)F)cc2)c1-c1nn[nH]n1 [Example 113, 4-(4-(Difluoromethoxy)phenyl)-6-(2-fluoro-4-(4,4,4-trifluorobutoxy)phenyl)-3-(2H-tetrazol-5-yl)pyridin-2(1H)-one] | 7 nM |
| COc1ccc(NC(=O)c2c(-c3ccc(C)cc3)cc(-c3ccc(OCCCC(F)(F)F)cc3)[nH]c2=O)cc1 [Example 2, N-(4-Methoxyphenyl)-2-oxo-4-(p-tolyl)-6-(4-(4,4,4-trifluorobutoxy)phenyl)-1,2-dihydropyridine-3-carboxamide] | 30 nM |
| O=C(NS(=O)(=O)C1CC1)c1c(-c2ccn(C3CCC3)n2)cc(-c2ccc(OCCCC(F)(F)F)cc2F)[nH]c1=O [Example 77, 4-(1-Cyclobutyl-1H-pyrazol-3-yl)-N-(cyclopropylsulfonyl)-6-(2-fluoro-4-(4,4,4-trifluorobutoxy)phenyl)-2-oxo-1,2-dihydropyridine-3-carboxamide] | 143 nM |
| COc1ccc(-c2cc(-c3ccc(OCCCCCC(F)(F)F)cc3)[nH]c(=O)c2C(=O)NS(=O)(=O)C2CC2)cc1 [Example 65] | 172 nM |
| Cc1ccc(-c2cc(-c3ccc(C4=CCCCCC4)cc3)[nH]c(=O)c2-c2nnn[nH]2)cc1 [Example 69, 6-(4-(Cyclohept-1-en-1-yl)phenyl)-3-(1H-tetrazol-5-yl)-4-(p-tolyl)pyridin-2(1H)-one] | 220 nM |
| O=c1[nH]c(-c2ccc(OCCCCCC(F)(F)F)cc2C(F)(F)F)cc(-c2ccn(CC3CC3)n2)c1-c1nn[nH]n1 [Example 155, 4-[1-(Cyclopropylmethyl)-1H-pyrazol-3-yl]-3-(2H-1,2,3,4-tetrazol-5-yl)-6-{4-[(6,6,6-trifluorohexyl)oxy]-2-(trifluoromethyl)phenyl}-1,2-dihydropyridin-2-one] | 3 nM |
| CCOc1ccc(NC(=O)c2c(-c3ccc(C)cc3)cc(C3CCCCC3)[nH]c2=O)cc1 [Example 28, 6-Cyclohexyl-N-(4-ethoxyphenyl)-2-oxo-4-(p-tolyl)-1,2-dihydropyridine-3-carboxamide] | 137 nM |
| CC1(C)CC=C(c2ccc(-c3cc(-c4ccn(CC5CC5)n4)c(-c4nn[nH]n4)c(=O)[nH]3)cc2)CC1 [Example 170, 4-[1-(Cyclopropylmethyl)-1H-pyrazol-3-yl]-6-[4-(4,4-dimethylcyclohex-1-en-1-yl)phenyl]-3-(2H-1,2,3,4-tetrazol-5-yl)-1,2-dihydropyridin-2-one] | 17 nM |
| CCn1ccc(-c2cc(-c3ccc(OCCCC(F)(F)F)cc3F)[nH]c(=O)c2C(=O)Nc2ccc(OC(F)(F)F)cc2)n1 [Example 120, 4-(1-Ethyl-1H-pyrazol-3-yl)-6-(2-fluoro-4-(4,4,4-trifluorobutoxy)phenyl)-2-oxo-N-(4-(trifluoromethoxy)phenyl)-1,2-dihydropyridine-3-carboxamide] | 45 nM |
| CCOc1ccc(NC(=O)c2c(-c3ccc(C(C)(C)C)cc3)cc(-c3ccc(OCCCC(F)(F)F)cc3)[nH]c2=O)cc1 [Example 45, 4-(4-(tert-Butyl)phenyl)-N-(4-ethoxyphenyl)-2-oxo-6-(4-(4,4,4-trifluorobutoxy)phenyl)-1,2-dihydropyridine-3-carboxamide] | 9 nM |
| O=c1[nH]c(-c2ccc(OCCCC(F)(F)F)cc2F)cc(-c2ncc(C3CC3)s2)c1-c1nnn[nH]1 [Example 125, 4-(5-Cyclopropylthiazol-2-yl)-6-(2-fluoro-4-(4,4,4-trifluorobutoxy)phenyl)-3-(1H-tetrazol-5-yl)pyridin-2(1H)-one] | 2 nM |
| Cc1ccc(-c2cc(-c3ccc(OCCCC(F)(F)F)cc3Cl)[nH]c(=O)c2C(=O)Nc2ccc(OC(F)(F)F)cc2)cc1 [Example 132, 6-(2-Chloro-4-(4,4,4-trifluorobutoxy)phenyl)-2-oxo-4-(p-tolyl)-N-(4-(trifluoromethoxy)phenyl)-1,2-dihydropyridine-carboxamide] | 14 nM |
| CCc1cnc(-c2cc(-c3ccc(/C=C/C4CC4)cc3)[nH]c(=O)c2-c2nn[nH]n2)s1 [Example 147, (E)-6-(4-(2-Cyclopropylvinyl)phenyl)-4-(5-ethylthiazol-2-yl)-3-(2H-tetrazol-5-yl)pyridin-2(1H)-one] | 7 nM |
| CC(C)n1ccc(-c2cc(-c3ccc(OCCCCCC(F)(F)F)cc3)[nH]c(=O)c2-c2nn[nH]n2)n1 [Example 66] | 61 nM |
| CCc1ccc(-c2cc(-c3ccc(OCCCCCC(F)(F)F)cc3)[nH]c(=O)c2C(=O)NS(=O)(=O)C2CC2)s1 [Example 84, N-(Cyclopropylsulfonyl)-4-(5-ethylthiophen-2-yl)-2-oxo-6-(4-((6,6,6-trifluorohexyl)oxy)phenyl)-1,2-dihydropyridine-3-carboxamide] | 1 nM |
| CN(C)c1ncc(-c2cc(-c3ccc(OCCCC(F)(F)F)cc3)[nH]c(=O)c2-c2nnn[nH]2)s1 [Example 68, 4-(2-(Dimethylamino)thiazol-5-yl)-3-(1H-tetrazol-5-yl)-6-(4-(4,4,4-trifluorobutoxy)phenyl)pyridin-2(1H)-one] | 673 nM |
